Reference: PubChem BioAssay AID504440 (Sanford-Burnham Center for Chemical Genomics, 2011)
Values joined by “and” are separate entries in the source; they are usually repeats but may differ in a detail not shown here. Equal values may be shown once. Active and inactive are the calls of the source.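 Rule for the calls: active = mean IC50 below 5 µM in the confirmatory dose response test; inactive = the rest.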

System: AML12 mouse hepatocytes, BODIPY lipid droplet imaging
Test: blockers of lipid droplet accumulation in AML12 cells – imaging, AML12 mouse hepatocytes, set 2, SAR follow-up (AID 504440)

O=C(NCCc1ccc2c(c1)OCO2)c1cc(-c2ccccc2)c(N2CCOCC2)s1 gave an IC50 of 3260 nM.
CCOc1ccc(CCNC(=O)CSc2cc(=O)n(C)c3cc(Cl)ccc23)cc1OCC gave an IC50 of 504 nM.
Work on CCOc1ccc(CCNC(=O)c2cc3ccsc3n2CC)cc1OC yielded an IC50 of 501 nM.
CCOc1ccc(CCNC(=O)CCc2nc(-c3ccc(OC)cc3)no2)cc1OCC was tested, and the IC50 was 206 nM.
CCOc1ccc(CCNC(=O)COC(=O)c2ccc(OC)c(OC)c2OC)cc1OCC showed an IC50 of 37.5 nM.
CCOc1ccc(CCNC(=O)c2cc3sccc3n2C)cc1OCC gave an IC50 of 124 nM.
With O=C(NCCc1ccc2c(c1)OCO2)c1ccc(N2CCOCC2)s1 the IC50 was > 10000 nM (inactive).
For COc1ccc(CNC(=O)c2ccc(N3CCOCC3)s2)cc1OC, the IC50 was > 10000 nM (inactive).
For CCOc1ccc(CCNC(=O)c2cc3ccccc3n2C)cc1OC, the IC50 was 804 nM.
In the case of CCOc1cc(CCNC(=O)c2cc3ccsc3n2C)ccc1OC, the IC50 is reported as 641 nM.
CCOc1ccc(CCNC(=O)CN2C(=O)c3cccnc3Oc3ccc(C)cc32)cc1OCC gave an IC50 of 130 nM.
In the case of CCOc1cc(CCNC(=O)c2cc3ccccc3n2C)ccc1OC, the IC50 is reported as 1040 nM.
Molecule CCn1c(C(=O)NCc2cc(OC)c(OC)c(OC)c2)cc2sccc21 has an IC50 of 4820 nM.
Work on CCOc1ccc(CCNC(=O)CCC(=O)N2CCSc3ccccc32)cc1OCC yielded an IC50 of 69.3 nM.
For CCOc1ccc(CCNC(=O)c2cc3sc(Cl)cc3n2C)cc1OCC, the IC50 was 69.7 nM.
CCOc1ccc(CCNC(=O)CCC(=O)N2CCOc3ccccc32)cc1OCC showed an IC50 of 199 nM.
With CCOc1ccc(CCNC(=O)c2cc3sccc3[nH]2)cc1OCC the IC50 was 639 nM.
Molecule CCOc1ccc(CCNC(=O)Cn2nc(C)c3c(C)n(-c4ccccc4)nc3c2=O)cc1OCC has an IC50 of 187 nM.
CCOc1ccc(CCNC(=O)c2ccc(N3CCOCC3)s2)cc1OCC gave an IC50 of 384 nM.
In the case of CCOc1cc(CCNC(=O)COc2cc(=O)n(C)c3ccccc23)ccc1OC, the IC50 is reported as 8930 nM (inactive).
For CCOc1ccc(CCNC(=O)CCOc2cc(C)ccc2C)cc1OCC, the IC50 was 67.8 nM.
CCOc1ccc(CCNC(=O)COC(=O)c2cc(OC)c(OC)c(OC)c2)cc1OCC gave an IC50 of 104 nM.
CCOc1ccc(CCNC(=O)CCC(=O)N2CCOc3ccc(C)cc32)cc1OCC was tested, and the IC50 was 235 nM.
Work on CCOc1ccc(CCNC(=O)COC(=O)c2cc(OC)cc(OC)c2)cc1OCC yielded an IC50 of 1090 nM.
In the case of Cn1c(C(=O)Nc2ccc3c(c2)OCO3)cc2ccsc21, the IC50 is reported as > 10000 nM (inactive).
With COc1cc(CNC(=O)CSc2cc(=O)n(C)c3ccccc23)cc(OC)c1OC the IC50 was > 10000 nM (inactive).
CCOc1ccc(CCNC(=O)c2cc3ccsc3n2C)cc1OCC was tested, and the IC50 was 138 nM.
For CCOc1cc(CCNC(=O)c2cc3sccc3n2CC)ccc1OC, the IC50 was 63 nM.
Molecule CCOc1ccc(CCNC(=O)c2cc(-c3ccccc3)c(N3CCOCC3)s2)cc1OC has an IC50 of 21.6 nM.
In the case of Cn1c(C(=O)NCc2ccc3c(c2)OCO3)cc2ccsc21, the IC50 is reported as > 10000 nM (inactive).
In the case of CCn1c(C(=O)Nc2ccc3c(c2)OCO3)cc2ccsc21, the IC50 is reported as > 10000 nM (inactive).
CCOc1ccc(CCNC(=O)CSc2cc(=O)n(C)c3ccccc23)cc1OC showed an IC50 of 3030 nM.
CCOc1cc(CCNC(=O)c2ccc(N3CCOCC3)s2)ccc1OC gave an IC50 of 2340 nM.
CCOc1ccc(CCNC(=O)c2cc3ccsc3n2CC)cc1OCC showed an IC50 of 77.9 nM.
For CCOc1ccc(CCNC(=O)CSc2cc(=O)n(CC)c3ccccc23)cc1OCC, the IC50 was 987 nM.
Molecule CCn1c(C(=O)NCCc2ccc(OC)c(OC)c2)cc2ccsc21 has an IC50 of 2150 nM.
For COc1ccc(CCNC(=O)c2cc3ccccc3n2C)cc1OC, the IC50 was > 10000 nM (inactive).
For CCOc1ccc(CCNC(=O)COc2cc(=O)n(C)c3ccccc23)cc1OCC, the IC50 was 945 nM.
With COc1cc(CNC(=O)c2cc3ccsc3n2C)cc(OC)c1OC the IC50 was > 10000 nM (inactive).
With CCn1c(C(=O)Nc2ccc3c(c2)OCO3)cc2sccc21 the IC50 was > 10000 nM (inactive).
In the case of CCn1c(C(=O)Nc2ccc(OC)c(OC)c2)cc2sccc21, the IC50 is reported as > 10000 nM (inactive).
In the case of CCOc1ccc(CCNC(=O)c2cc(-c3ccccc3)c(N3CCOCC3)s2)cc1OCC, the IC50 is reported as 6.1 nM and 6.39 nM.
COc1ccc(CCNC(=O)c2cc3sccc3n2C)cc1OC was tested, and the IC50 was 8370 nM (inactive).
With COc1ccc(CNC(=O)CSc2cc(=O)n(C)c3ccccc23)cc1OC the IC50 was > 10000 nM (inactive).
Molecule CCOc1ccc(CCNC(=O)CN2CCN(Cc3ccccc3C)C2=O)cc1OCC has an IC50 of 344 nM.
With COc1ccc(NC(=O)c2cc3ccsc3n2C)cc1OC the IC50 was > 10000 nM (inactive).
In the case of CCOc1ccc(CCNC(=O)C2CC=CCC2C(=O)OC(C)C)cc1OCC (stereo not drawn), the IC50 is reported as 260 nM.
Molecule CCOc1ccc(CCNC(=O)Cn2cccc2C(=O)c2ccccc2C)cc1OCC has an IC50 of 349 nM.
CCOc1ccc(CCNC(=O)Cn2ncn3nc(-c4ccc(OC)cc4)cc3c2=O)cc1OCC showed an IC50 of 129 nM.
In the case of COc1ccc(CCNC(=O)Cn2cccc2C(=O)c2ccccc2C)cc1OC, the IC50 is reported as > 10000 nM (inactive).
With COc1ccc(CCNC(=O)c2cc3sc(Cl)cc3n2C)cc1OC the IC50 was 7020 nM (inactive).
CCOc1ccc(CCNC(=O)c2nnc(Cc3ccc(F)cc3)o2)cc1OCC gave an IC50 of 348 nM.
With CCOc1ccc(CCNC(=O)CCc2nnc3ccc(N4CCCC4)nn23)cc1OCC the IC50 was 771 nM.
With COc1ccc(CCNC(=O)CSc2cc(=O)n(C)c3ccccc23)cc1OC the IC50 was > 10000 nM (inactive).
In the case of CCn1c(C(=O)NCc2ccc3c(c2)OCO3)cc2sccc21, the IC50 is reported as > 10000 nM (inactive).
For O=C(NCCc1ccc2c(c1)OCO2)c1cc2sccc2[nH]1, the IC50 was > 10000 nM (inactive).
CCOc1ccc(CCNC(=O)c2cc3sccc3n2CC)cc1OC showed an IC50 of 261 nM.
CCOc1cc(CCNC(=O)c2cc3sccc3[nH]2)ccc1OC showed an IC50 of 2190 nM.
In the case of COc1ccc(CCNC(=O)COC(=O)c2cc(OC)c(OC)cc2OC)cc1OC, the IC50 is reported as > 10000 nM (inactive).
Cn1c(=O)cc(SCC(=O)Nc2ccc3c(c2)OCO3)c2ccccc21 was tested, and the IC50 was > 10000 nM (inactive).
In the case of CCOc1ccc(CCNC(=O)c2cc3ccsc3n2C)cc1OC, the IC50 is reported as 1090 nM.
In the case of CCOc1ccc(CCNC(=O)CSc2cc(=O)n(C)c3ccccc23)cc1OCC, the IC50 is reported as 564 nM and 526 nM.
Work on CCn1c(C(=O)NCCc2ccc(OC)c(OC)c2)cc2sc(Cl)cc21 yielded an IC50 of 1350 nM.
CCOc1cc(CCNC(=O)c2cc(-c3ccccc3)c(N3CCOCC3)s2)ccc1OC gave an IC50 of 42.8 nM.
Molecule CCOc1ccc(CCNC(=O)c2cc3sccc3n2CC)cc1OCC has an IC50 of 39.9 nM.
For CCOc1ccc(CCNC(=O)CCc2nnc3ccc(N4CCCCC4)nn23)cc1OCC, the IC50 was 199 nM.
With COc1ccc(CNC(=O)c2cc3ccsc3n2C)cc1OC the IC50 was > 10000 nM (inactive).
COc1ccc(CNC(=O)c2cc(-c3ccccc3)c(N3CCOCC3)s2)cc1OC was tested, and the IC50 was 101 nM.
With Cn1c(C(=O)NCCc2ccc3c(c2)OCO3)cc2ccccc21 the IC50 was > 10000 nM (inactive).
With Cn1c(=O)cc(SCC(=O)NCCc2ccc3c(c2)OCO3)c2ccccc21 the IC50 was > 10000 nM (inactive).
With Cn1c(=O)cc(SCC(=O)NCc2ccc3c(c2)OCO3)c2ccccc21 the IC50 was > 10000 nM (inactive).
With CCOc1ccc(CCNC(=O)Cn2cccc2C(=O)c2ccccc2)cc1OCC the IC50 was 418 nM.
In the case of COc1ccc(CCNC(=O)c2cc(-c3ccccc3)c(N3CCOCC3)s2)cc1OC, the IC50 is reported as 271 nM and 186 nM.
CCn1c(C(=O)NCc2cc(OC)c(OC)c(OC)c2)cc2ccsc21 gave an IC50 of 3020 nM.
For COc1ccc(CCNC(=O)c2cc(-c3ccccc3)c(N3CCOCC3)s2)c(OC)c1OC, the IC50 was 88.3 nM.
In the case of CCOc1cc(CCNC(=O)CSc2cc(=O)n(C)c3ccccc23)ccc1OC, the IC50 is reported as 6380 nM (inactive).
CCn1c(C(=O)Nc2ccc(OC)c(OC)c2)cc2ccsc21 was tested, and the IC50 was > 10000 nM (inactive).
For CCn1c(C(=O)NCc2ccc(OC)c(OC)c2)cc2ccsc21, the IC50 was > 10000 nM (inactive).
